Test results reported in patent US20220073475A1, “5-MEMBERED HETEROARYL COMPOUNDS CONTAINING A HYDROXAMATE MOIETY AND THEIR USE” (UNIVERSITE DE LILLE, priority 2019, published 2022).

Tests used:
TLM1 cells = assay: X-ray radiation in combination with compound, propidium iodide dead cells, ratio of corrected AUC; format: cell-based, canine; conditions: for Potency of X-ray radiations in combination with compound (in words): TLM1; for Activity: ratio of corrected AUC of X-ray radiation in combination with compound / corrected AUC of X-ray radiation alone: TLM1, compound at 30 μM
Description: Canine melanoma TLM-1 cells are maintained in DMEM medium supplemented with GlutaMAX™, 10% fetal bovine serum, 1× Hepes and 1% penicillin-streptomycin.
TLM-1 cells were seeded with the BioTek MicroFlo™ dispenser in μClear® black 384-well plates (Greiner) at the density of 20,000 cells/mL in 50 μL. Compounds for pre-treatment were added 2 h after the seeding, using an Echo 550 (Labcyte). The next day, cells were washed five times with 40 μL media without phenol red with a plate washer (Hydrospeed, Tecan). Cells were irradiated with 4, 6, 8, 12, 16, 20 and 24 Gray (Gy). […] This step was repeated every 72 h after radiation. Plates were incubated at 37° C. and 5% CO2. […] 4 images per well were collected. Images were analyzed with Columbus software (Perkin Elmer). In this system we used predefined building blocks to measure different parameters on nuclei detected. We applied a threshold based on propidium iodide intensity in nuclei of controls to select and count dead cells. By dividing the number of dead cells by the number of nuclei detected we obtained the percentage of dead cells. AUC were determined in one experiment with triplicate incubates on percentage of cells labelled with propidium iodide and were corrected by the percentage of cells labelled with propidium iodide at 0 Gy. Ratio of AUC corrected was determined as followed: Activity=(Area of the dose-concentration curve of cytotoxic agent combined with one concentration of compound corrected by the effect of the compound alone at 0Gy)/(Area of the dose-concentration curve of radiation alone corrected by the effect of the vehicle at 0Gy).

OPM2 cells = assay: CFZ potency increase, ratio of CC50 of CFZ alone / with compound; format: cell-based, human
From the text: Human multiple myeloma cells OPM2 (ACC 50, DSMZ) are maintained at 0.3-0.7 10^6 cells/mL in RPMI1640 medium supplemented with GlutaMAX™, 10% fetal bovine serum and 1% penicillin-streptomycin.
(§1) We developed a cell-based, high content assay allowing the rapid detection and quantification of apoptotic cells. Caspase-3/7 activity was detected in real-time using the NucView™ 488 Caspase-3 substrate (Biotium), where the caspase-3/7 substrate peptide sequence DEVD is attached to a nucleic acid dye. The NucView™ 488 reagent crosses the plasma membrane to enter the cytoplasm, where the dye is unable to bind to DNA and remains non-fluorescent. Once the substrate has been cleaved by activated caspase-3/7 in apoptotic cells, the high-affinity DNA dye is released and migrates to the cell nucleus to stain the nucleus with a bright green fluorescence. All cell nuclei were also labeled with Hoechst 33342 (Ozyme).
For OPM2, briefly, nanoliters of compound and cytotoxic agent in DMSO stock solutions were first transferred and combined in 384-microtiter well plate using an Echo555 liquid handler (Labcyte). The exact volume of each solution to be transferred was calculated to achieve subsequently the target concentration in the 70 μL volume incubate. Final DMSO content was maintained at 0.2%. Then, 70 μL of cells treated with 1 μM NucView™ 488 and 20 ng/mL Hoechst 33342 were distributed to the plates to obtain a final density of 12,000 cells per well. The microplates were incubated at 37° C. and 5% CO2 in an automated LiCONiC STR240 UB cell incubator, and images were acquired at various times at 405 nm and 488 nm with the high-resolution automated confocal microscope INCell 6000 (GE). Four fields per well were read with the 20× objective in a confocal mode. The BioCel workstation was managed by VWorks automation control software
(§2) For all cells, Columbus software (Perkin) was used for image quantification and analysis. First, Hoechst 33342 staining was used for an automated detection of nuclei, in which the mean fluorescence intensity for NucView™ 488 was quantified. Inspection of control cells at initial time was used to set a threshold level of NucView™ 488 fluorescence to separate non apoptotic cells from apoptotic cells. Finally, for each well, the result was expressed as percentage of apoptotic cells in the total cell population. CC50 values were calculated from concentration-response curves by a nonlinear regression analysis at four parameters using Excel Fit or GraphPad Prim softwares.
(§3) Activity=(% of apoptotic cells with cytotoxic agent in combination with compound of the invention)/(% of apoptotic cells with cytotoxic agent alone). • Ratio of CC50: The CC50 of the cytotoxic agent was calculated in absence and in presence of a compound of the invention.
(§4) Activity=(CC50 of agent alone)/(CC50 of agent with compound). • Ratio of AUC. Activity=(Area of the dose-concentration curve of cytotoxic agent combined with one concentration of compound)/(Area of the dose-concentration curve of cytotoxic agent alone). (Lehar J. et al, 2008 (molecular systems biology 4:215)).

HeLa cells = assay: as above; format: cell-based, human; conditions: compound at 7.5 μM
From the text: Human HeLa cells (uterine cervical carcinoma) are maintained in DMEM medium supplemented with GlutaMAX™, 10% fetal bovine serum and 1% penicillin-streptomycin.
as §1
(§5) For HeLa and MCF7 cells, briefly, cells were seeded in 384-microtiter well plate (1500 HeLa cells or 5000 MCF7 cells in 40 μL full medium per well) and let to attach overnight. Then the compound of the invention and the RE stressor were transferred to the cell culture plate using an Echo555 liquid handler (Labcyte) and 30 μL medium containing NucView™ and Hoechst 33342 were added. Final NucView™ 488 and Hoechst 33342 concentrations were 1 μM and 20 ng/mL, respectively. DMSO content was maintained at 0.2%. The microplates were incubated at 37° C. and 5% CO2 in an automated LiCONiC STR240 UB cell incubator, and images were acquired at various times at 405 nm and 488 nm with the high-resolution automated confocal microscope INCell 6000 (GE). Four fields per well were read with the 20× objective in a confocal mode. The BioCel workstation was managed by VWorks automation control software (Agilent).
as §2, §3, §4

MCF7 cells = assay: as above; format: cell-based, human; conditions: MCF7, compound at 15 μM
Description: Human epithelial MCF7 cells (mammary gland adenocarcinoma) are maintained in EMEM medium supplemented with GlutaMAX™, 10% fetal bovine serum, 0.01 mg insulin and 1% penicillin-streptomycin.
as §1, §5, §2, §3, §4

[1] = OPM2, compound at 7.5 μM (Table 5)
[2] = OPM2, compound at 7.5 μM (Table 6)

Row | SMILES | Potency of X-ray radiations in combination with compound (in words) (TLM1 cells) | Activity: ratio of corrected AUC of X-ray radiation in combination with compound / corrected AUC of X-ray radiation alone (TLM1 cells) | Activity: ratio (CC50 of CFZ alone)/(CC50 of CFZ in combination with compound of the invention) (OPM2 cells; [1]) | Activity: ratio (CC50 of CFZ alone)/(CC50 of CFZ in combination with compound of the invention) (HeLa cells) | Activity: ratio (CC50 of CFZ alone)/(CC50 of CFZ in combination with compound of the invention) (MCF7 cells) | Activity: ratio (CC50 of CFZ alone)/(CC50 of CFZ in combination with compound of the invention) (OPM2 cells; [2]) | Activity: ratio (CC50 of CFZ alone)/(CC50 of CFZ in combination with compound of the invention) (OPM2 cells; OPM2, compound at a concentration of 3.7 μM (Table 5, footnote b))
1 | O=C(C[C@@H](Cc1ccc2ccccc2c1)n1cc(C2CSCN2C(=O)c2ccc(F)cc2)nn1)NO (stereo partly drawn) [Compound 186, (3R)-3-(4-(3-(4-fluorobenzoyl)thiazolidin-4-yl)-1H-1,2,3-triazol-1-yl)-N-hydroxy-4-(naphthalen-2-yl)butanamide] | increase the potency | 2.0 | 2.9 |  |  |  | 
2 | CN(Cc1cn([C@@H](CC(=O)NO)Cc2ccc3c(c2)CCCC3)nn1)C(=O)c1ccc(F)c(F)c1 [Compound 169, (R)-3,4-difluoro-N-((1-(4-(hydroxyamino)-4-oxo-1-(5,6,7,8-tetrahydronaphthalen-2-yl)butan-2-yl)-1H-1,2,3-triazol-4-yl)methyl)-N-methylbenzamide] | increase the potency | 2.5 | 3.3 |  |  |  | 
3 | O=C(C[C@@H](C/C=C/c1ccccc1)n1cc(CNC(=O)c2ccc(F)c(F)c2)nn1)NO [Compound 75, 3,4-difluoro-N-[[1-[(E,1R)-1-[2-(hydroxyamino)-2-oxo-ethyl]-4-phenyl-but-3-enyl]triazol-4-yl]methyl]benzamide] |  |  | 1.7 | 4.3 | 2.1 | 1.7 | 
4 | O=C(C[C@@H](Cc1ccc2ccccc2c1)n1cc(CNC(=O)c2ccc(F)c(Cl)c2)nn1)NO [Compound 62, 3-chloro-4-fluoro-N-[[1-[(1R)-3-(hydroxyamino)-1-(2-naphthylmethyl)-3-oxo-propyl]triazol-4-yl]methyl]benzamide] |  |  | 1.6 | 3.0 | 2.6 | 1.6 | 
5 | CC(NC(=O)c1ccc(F)c(F)c1)c1cn([C@@H](CC(=O)NO)Cc2ccc3c(c2)CCCC3)nn1 (stereo partly drawn) [Compound 168, 3,4-difluoro-N-(1-(1-((R)-4-(hydroxyamino)-4-oxo-1-(5,6,7,8-tetrahydronaphthalen-2-yl)butan-2-yl)-1H-1,2,3-triazol-4-yl)ethyl)benzamide] | increase the potency | 2.4 | 2.8 |  |  |  | 
6 | O=C(C[C@@H](Cc1ccc2ccccc2c1)n1nncc1CNC(=O)c1ccccc1)NO [Compound 12, (R)—N-[3-(1-Hydroxycarbamoylmethyl-2-naphthalen-2-yl-ethyl)-3H-[1,2,3]triazol-4-ylmethyl]-benzamide] |  |  | 1.2 | 2.4 | 1.6 | 1.2 | 
7 | O=C(C[C@@H](Cc1ccc2ccccc2c1)n1cc(CC(=O)Nc2ccc(F)cc2)nn1)NO [Compound 58, 3-{4-[(4-Fluoro-phenylcarbamoyl)-methyl]-[1,2,3]triazol-1-yl}-N-hydroxy-4-naphthalen-2-yl-butyramide] |  |  | 1.4 | 2.7 | 2.0 | 1.4 | 
8 | O=C(C[C@@H](Cc1ccc2ccccc2c1)n1cc([C@@H]2CCCN2C(=O)c2ccc(F)c(F)c2)nn1)NO [Compound 93, (3R)-3-[4-[(2S)-1-(3,4-difluorobenzoyl)pyrrolidin-2-yl]triazol-1-yl]-4-(2-naphthyl)butanehydroxamic acid] | increase the potency | 1.2 | 2.3 |  |  |  | 
9 | O=C(C[C@@H](Cc1ccc2c(c1)CCCC2)n1cc(CNC(=O)c2ccc(F)c(F)c2)nn1)NO [Compound 144, (R)-3,4-difluoro-N-((1-(4-(hydroxyamino)-4-oxo-1-(5,6,7,8-tetrahydronaphthalen-2-yl)butan-2-yl)-1H-1,2,3-triazol-4-yl)methyl)benzamide] | increase the potency | 2.4 |  |  |  |  | 1.8
10 | O=C(C[C@@H](Cc1ccc2ccccc2c1)n1cc(C2CCCCN2C(=O)c2ccc(F)cc2)nn1)NO (stereo partly drawn) [Compound 187, (3R)-3-(4-(1-(4-fluorobenzoyl)piperidin-2-yl)-1H-1,2,3-triazol-1-yl)-N-hydroxy-4-(naphthalen-2-yl)butanamide] | increase the potency | 2.4 | 3.4 |  |  |  | 
